Consider six molecules from article PMC6155626 (Molecules : A Journal of Synthetic Chemistry and Natural …, 2016).

For data set [1], the system named is Xanthomonas axonopodis pv. citri. The data set is described as follows: microbe, parasite or virus in culture. The class given is cell-based.
For data set [2], the system named is X. oryzae in rice plant. The class given is in vivo, Xanthomonas oryzae pv. oryzae. As to conditions: 200 μg/mL, 14 days after spraying.
Data set [3] relates to Xanthomonas oryzae pv. oryzae. Briefly: microbe, parasite or virus in culture. Format: cell-based. The settings on record: Xanthomonas oryzae.
Data set [4] relates to X. oryzae in rice plant. The settings on record: 200 μg/mL; cited from earlier work.
Another data set has as its system tobacco leaves. The settings on record: in vivo.
For data set [5], the system named is Ralstonia solanacearum. Briefly: microbe, parasite or virus in culture. Format: cell-based. As to conditions: Ralstonia solanacearum.
For data set [6], the system named is rice seeds (Fengyou Xiangzhan). As to conditions: Fengyou Xiangzhan, rice, in vivo.
Data set [7] concerns Xanthomonas oryzae pv. oryzae. The settings on record: X. oryzae, previously reported analog, cited from earlier work.
For data set [8], the system named is Ralstonia solanacearum. As to conditions: R. solanacearum, previously reported analog, cited from earlier work.
Setting [9] is: Xanthomonas axonopodis, read-out: Inhibition rate.

SMILES strings stand for the structures. ≈ marks a conversion by molar mass, not a printed value. Where “and” joins values, the source holds several entries; their conditions need not be identical. Equal entries are not always repeated. Where two headings read alike, the source gives them in different places.

The EC50 is the midpoint of the concentration-response curve. For `S=c1[nH]nc(NCNc2n[nH]c(=S)s2)s1` [Bismerthiazol, 5,5′-(methylenediimino)bis-1,3,4-Thiadiazole-2(3H)-thione, reference compound], the EC50 in data set [1] was 119.5 ± 5.1 µg/mL; in data set [1] (Xanthomonas axonopodis) it was 119 µg/mL; in data set [1] (Xanthomonas axonopodis, read-out: Bactericidal EC50 in molar terms) it was approximately 333 µM; in data set [3] it was 92.6 ± 2.15 µg/mL (≈ 333 µM); in the data set with Ralstonia solanacearum [5] (R. solanacearum), 59.7 ± 2.56 µg/mL (≈ 214 µM). Besides, the inhibition at 100 µg/mL in data set [1] (setting [9]) is 45%; in data set [3] (read-out: Inhibition rate, X. oryzae, 100 μg/mL, average of three replicates), 54%; in the data set with Ralstonia solanacearum [5] (read-out: Inhibition rate), 99%. The inhibition at 200 µg/mL in [1] (setting [9]) was determined as 67%; in data set [3] (read-out: Inhibition rate, X. oryzae, 200 μg/mL, average of three replicates) it was 72%; in the data set with Ralstonia solanacearum [5] (read-out: Inhibition rate), 100%. Further, the “Disease Index” value in the data set on X. oryzae in rice plant [2] is recorded as 60.0. This molecule registered a Morbidity in the data set on X. oryzae in rice plant [2] of 100.0%. The “Protective Efficiency” value with X. oryzae in rice plant [2] was 25.6% and 25.6 ± 4.4%. The “Control efficiency against rice bacterial leaf blight” value with X. oryzae in rice plant [4] was 25.49%. Besides, in the data set on tobacco leaves (Nicotiana benthamiana (tobacco)), the “Necrosis (lesion diameter) on tobacco leaves” value is reported as 0.2–0.3 cm. Besides, the “Phytotoxic effect on tobacco plant (in words)” value with tobacco leaves is listed as “no or negligible phytotoxic effect”. Also, the “Concentration showing phytotoxicity on rice germination” value in data set [6] was 300 µM.
As to `CS(=O)(=O)c1nnc(-c2ccc(Cl)cc2)o1` [C00001 (R = 4-Cl, X = No Atom)], the values for the EC50 (in data set [7] (X = No Atom); with Ralstonia solanacearum [8] (X = No Atom)) were 23.21 ± 0.98 ^16 μg/mL and 120.90 ± 2.6 ^14 μg/mL, respectively.
Turning to `CS(=O)(=O)c1nnc(-c2ccc(Cl)cc2Cl)o1` [C00001 (R = 2,4-di Cl, X = No Atom)], the EC50 in [7] (X = No Atom) was 52.14 ± 1.05 ^16 μg/mL; in the data set on Ralstonia solanacearum [8] (X = No Atom), 16.55 ± 1.12 ^14 μg/mL.
Consider `CS(=O)(=O)c1nnc(-c2ccc(F)cc2)o1` [C00001 (R = F, X = No Atom), 2-(4-fluorophenzyl)-5-(methylsulfonyl)-1,3,4-oxadiazole], for which the EC50 in data set [7] (X = No Atom) is 9.89 ± 1.52 ^16 μg/mL; in the data set on Ralstonia solanacearum [8] (X = No Atom), 8.29 ± 0.56 ^14 μg/mL.
On to `CS(=O)(=O)c1nnc(Cc2ccc(Cl)cc2)o1` [C00001 (R = 4-Cl, X = CH2)], for which the EC50 in [7] (X = CH2) is recorded as 12.23 ± 1.45 ^15 μg/mL.
For `CS(=O)(=O)c1nnc(Cc2ccc(Cl)cc2Cl)o1` [C00001 (R = 2,4-di Cl, X = CH2)], the results for the EC50 (in data set [7] (X = CH2); in the data set on Ralstonia solanacearum [8] (X = CH2)) were 1.96 ± 0.99 ^15 μg/mL and 59.9 ^26 μg/mL, respectively.
